Results taken from patent US11840686B2, “Modulation of prekallikrein (PKK) expression” (Ionis Pharmaceuticals, Inc., priority 2013, dated 2023).
e = 2'-O-(2-methoxyethyl) (MOE); d = 2'-deoxy (DNA)

What was measured:
[1] = tested on: captopril and ISIS 461756-induced vascular permeability; experiment: Evans Blue vascular permeability in captopril and ISIS 461756-induced angioedema mouse models (Example 11); type: in vivo; conditions: captopril Yes, ISIS 461756 Yes; ISIS oligonucleotides 40 mg/kg sc twice a week 4 weeks; HOE-140 30 μg ip
Excerpt: Hereditary angioedema (HAE) is characterized by local swelling and increase in vascular permeability in subcutaneous tissues (Morgan, B. P. N. Engl. J. Med. 363: 581-83, 2010). It is caused by a deficiency of the C1 inhibitor, a protein of the complement system. Two mouse models were used in this study including an established mouse model of C1-INH deficiency and a captopril-induced edema model, both of which cause vascular permeability, a hallmark of HAE. Reversal of vascular permeability is accompanied by increased plasma levels of high molecular weight kininogen (HMWK).
In the first model, angioedema was induced by treatment with Captopril, a known antihypertensive agent, which increases vascular permeability in mice and replicates the pathology of hereditary angioedema.
In the second model, angioedema was induced by treatment with ISIS 461756, an antisense oligonucleotide which targets murine C1 inhibitor mRNA, which increases vascular permeability in mice and replicates the pathology of hereditary angioedema. ISIS 461756 (SEQ ID NO: 2245; […]) is a 5-10-5 MOE gapmer targeting nucleosides 1730-1749 of NM_009776.3 (SEQ ID NO: 2243).
The effect of HOE-140 and ISIS 482584, an antisense oligonucleotide inhibitor of PKK, were evaluated in the Captopril and ISIS 461756-induced mouse models of vascular permeability. Some of the murine groups were treated with HOE-140, a selective antagonist of the bradykinin B2 receptor, which blocks vasodilation and vascular permeability (Cruden and Newby, Expert Opin. Pharmacol. 9: 2383-90, 2008). Other mice were treated with ISIS 482584, which inhibits PKK mRNA expression. The effect of treatment with HOE-140 was compared with the effect of treatment with ISIS 482584.
Group 1 consisted of 4 C57BL/6J-Tyrc-2J mice treated with PBS administered subcutaneously twice a week for 4 weeks. No other treatment was administered to Group 1 which served as a control group to measure the basal level of vascular permeability.
Group 2 consisted of 8 C57BL/6J-Tyrc-2J mice treated with PBS administered subcutaneously twice a week for 4 weeks. At the end of the treatment, the mice were intraperitoneally administered 20 μg of captopril. Group 2 served as a PBS control group for captopril-induced vascular permeability.
(§1) Group 3 consisted of 8 C57BL/6J-Tyrc-2J mice treated with PBS administered subcutaneously twice a week for 4 weeks. On day 14, the mice were treated with 50 mg/kg of the antisense oligonucleotide targeting C1 inhibitor, ISIS 461756, administered subcutaneously twice a week for 2 weeks. At the end of the treatment period, the mice were intraperitoneally administered 20 μg of captopril. Group 3 served as a PBS control group for captopril and ISIS 461756-induced vascular permeability.
Group 4 consisted of 8 C57BL/6J-Tyrc-2J mice treated with PBS administered subcutaneously twice a week for 4 weeks. On day 14, the mice were treated with 50 mg/kg of the antisense oligonucleotide targeting C1 inhibitor, ISIS 461756, administered subcutaneously twice a week for 2 weeks. At the end of the treatment period, the mice were intraperitoneally administered 20 μg of captopril. The mice were then also intraperitoneally administered 30 μg of HOE-140. Group 4 served as a positive control for inhibition of vascular permeability with HOE-140.
as §1, with “5” for “3”, “40 mg/kg of control oligonucleotide ISIS 141923, a 5-10-5 MOE gapmer with no known murine target, ([…]; SEQ ID NO: 2246)” for “PBS”, “a” for “a PBS”, “permeability. […]” for “permeability.”

[2] = tested on: C1-INH mRNA; experiment: C1-INH mRNA in liver of mice treated with ISIS 461756 (Example 18); type: in vivo, mouse; conditions: for Percent inhibition of C1-INH mRNA expression compared to the untreated PBS control: liver, all groups ISIS 461756 25 mg/kg/wk, pretreatment PBS or oligonucleotide 80 mg/kg/wk sc 3 weeks
Experimental: (§2) Vascular permeability induced by ISIS 461756, an antisense oligonucleotide which targets murine C1 inhibitor mRNA, increases vascular permeability in mice and replicates the pathology of hereditary angioedema. The effect of ISIS 482584 on this model was evaluated.
(§3) One group of 8 mice was treated with 40 mg/kg ISIS 482584 administered subcutaneously twice a week for 3 weeks (weekly dose of 80 mg/kg). A second group of 8 mice was treated with 40 mg/kg of the control oligonucleotide, ISIS 141923, administered subcutaneously twice a week for 3 weeks (weekly dose of 80 mg/kg). A third group of 8 mice was treated with PBS administered subcutaneously twice a week for 3 weeks. On day 14, all the groups were treated with 12.5 mg/kg ISIS 461756 administered subcutaneously twice a week for 3 weeks (weekly dose of 25 mg/kg). A control group of mice was treated with PBS administered subcutaneously twice a week for 3 weeks but was not administered ISIS 461756.
(§4) At the end of the treatment period, all the groups were injected with 30 mg/kg of Evans Blue solution into the tail vein. The mice were sacrificed 30 min after the Evans Blue solution administration and colons, feet, ears, and intestines were harvested. The liver was also harvested for RNA analysis.
(§5) RNA was isolated from the liver for RT-PCR analysis of C1-INH and PKK mRNAs. The primer probe set for C1-INH is RTS3218 (forward sequence […], designated herein as SEQ ID NO: 2234; reverse sequence […], designated herein as SEQ ID NO: 2235; probe sequence […], designated herein as SEQ ID NO: 2236). The primer probe set for PKK is RTS3287 (forward sequence […], designated herein as SEQ ID NO: 2237; reverse sequence […], designated herein as SEQ ID NO: 2238; probe sequence […], designated herein as SEQ ID NO: 2239). The results are presented in Table 79 as percent inhibition compared to the PBS control not treated with ISIS 461756.

[3] = tested on: PKK mRNA; experiment: PKK mRNA in liver of mice treated with ISIS 461756 (Example 18); type: in vivo, mouse; conditions: liver; all groups ISIS 461756 25 mg/kg/wk; pretreatment PBS or oligonucleotide 80 mg/kg/wk sc 3 weeks
Experimental: as §2, §3, §4, §5

[4] = tested on: vascular permeability induced by ISIS 461756; experiment: C1-INH antisense oligonucleotide-induced vascular permeability, Evans Blue OD600 (Example 18); type: in vivo, mouse; conditions: Evans Blue OD600; all groups ISIS 461756 25 mg/kg/wk; pretreatment PBS or oligonucleotide 80 mg/kg/wk
Experimental: as §2, §3, §4
The harvested tissues from the feet, colon, and intestines were placed in formamide solution overnight to leach out the Evans Blue dye. The formamide solution containing feet tissue was heated to 55° C. and left overnight. The color intensity of the dye-infused formamide solution was then measured at OD600 nm. The data is presented in Table 80 as percent increase or reduction compared to the PBS control not treated with ISIS 461756.

Substance	OD600 nm of Evans Blue dye, Colons [1]	OD600 nm of Evans Blue dye, Ears [1]	OD600 nm of Evans Blue dye, Feet [1]	OD600 nm of Evans Blue dye, Intestines [1]	Percent inhibition of C1-INH mRNA expression compared to the untreated PBS control [2] [%]	Percent inhibition of PKK mRNA expression compared to the untreated PBS control [3] [%]	Percent change in vascular permeability compared to the untreated PBS control, Colon [4] [%]	Percent change in vascular permeability compared to the untreated PBS control, Feet [4] [%]	Percent change in vascular permeability compared to the untreated PBS control, Intestines [4] [%]	C1-INH mRNA expression ([2]; mouse liver, 12.5 mg/kg ISIS 461756 s.c. twice a week)
ISIS 141923: control oligonucleotide, 5-10-5 MOE gapmer with no known murine target, CCTTCCCTGAAGGTTCCTCC; SEQ ID NO: 2246 (sugars from the 5' end e5 d10 e5, backbone and methylation of C not given here) [reference compound]	0.44	0.08	0.14	0.29	79	0	2	80	14	–
ISIS 461756: 5-10-5 MOE gapmer which targets murine C1 inhibitor mRNA, AAAGTGGTTGATACCCTGGG; SEQ ID NO: 2245 (sugars from the 5' end e5 d10 e5, backbone and methylation of C not given here)	–	–	–	–	76	0	13	70	27	significantly reduced C1-INH mRNA expression
